≈ marks a conversion by molar mass, not a printed value.
Assays:
[1] = test system: E. coli K12; assay: Minimum inhibitory concentration (MIC), bioscreen spectrophotometer; assay type: cell-based; details: Escherichia coli, 24 h incubation at 37° C., bioscreen spectrophotometer at 600 nm
From the text: A range of different concentrations of antibiotic were used to establish the MIC employing a standardised method^17.

[2] = test system: Staphylococcus aureus (Gram-positive); assay: Susceptibility/resistance of the selected strain (Table 10); assay type: cell-based; details: Experimental Work 4
[3] = test system: Psuedomonas aeruginosa (Gram-negative); assay: as above; assay type: cell-based, Pseudomonas aeruginosa; details: Experimental Work 4
[4] = test system: Staphylococcus epidermidis (Gram-positive); assay: as above; assay type: cell-based; details: Experimental Work 4
[5] = test system: S. aureus; assay: UV-Vis spectroscopy with PC-DFA cluster plot, phenotypic shift after antibiotic exposure vs unexposed control; assay type: cell-based, Staphylococcus aureus
From the text: (§1) A first stage of data analysis involved the use of principal component analysis (PCA). […] Its aim is to simplify spectral data from a high number of variables into a smaller number of indices (each called a “principal component” or “PC”), simultaneously retaining the original data variance by identifying data patterns. This is achieved as each PC becomes a representation of a group of data with a linear relationship, at the same time being completely uncorrelated to the subsequent PC which corresponds to a different data dimension. PCs are arranged in a descending order in terms of the degree of original data variance they represent with the first PC representing the greatest amount of original data variance. Addition of all the PCs thus yields the entire original data variance, with the first 5 PCs nearly always corresponding to almost 95% of that variance^11,20-22.
In a second stage, discriminant function analysis (DFA), a supervised technique, was used. This chemometrics technique forms a model by taking into account the structure of data collected from the experiment, thus having a priori experimental knowledge. Using this knowledge it then discriminates data into groups (bacterial classes of treatment) based on the PCs obtained from the PCA in an attempt to reduce intra-group variance and widen inter-group variance^23.
For each strain, 3 mL of nutrient broth was inoculated with the overnight grown cells to a final OD600nm=0.1, followed by dispensing the samples as 200 μL aliquots in a sterile Corning 96 well plate (5 biological replicates per strain for each condition). All plates were sealed using sterile Breath-Easy sealing membranes to reduce sample evaporation. The plates were incubated at 37° C. with 200 rpm shaking for 150 min.
The plates were transferred to one of two BioTek Synergy HT microplate readers programmed for 30 min shaking with medium speed at 37° C. followed by a full scan (200-999 nm range) of all the samples with 2 nm resolution.
In general, unless otherwise stated, the material and methods for Experimental Work 4 were the same as for Experimental Work 3, except that a single Thermo Biomate 5 UV-Vis spectrometer across spectral range of 300-800 nm was used for data collection in Experimental Work 4.

[6] = test system: P. aeruginosa; assay: as above; assay type: cell-based, Pseudomonas aeruginosa; details: after both 10 minutes and 30 minutes
From the text: as §1
(§2) In a second stage, discriminant function analysis (DFA), a supervised technique, was used. This chemometrics technique forms a model by taking into account the structure of data collected from the experiment, thus having a priori experimental knowledge. […]
(§3) The plates were transferred to one of two BioTek Synergy HT microplate readers programmed for 30 min shaking with medium speed at 37° C. followed by a full scan (200-999 nm range) of all the samples with 2 nm resolution. […]

[7] = test system: S. epidermidis; assay: as above; assay type: cell-based, Staphylococcus epidermidis; details: after both 10 minutes and 30 minutes
From the text: as §1, §2, §3

NCC[C@H](O)C(=O)N[C@@H]1C[C@H](N)[C@@H](O[C@H]2O[C@H](CN)[C@@H](O)[C@H](O)[C@H]2O)[C@H](O)[C@H]1O[C@H]1O[C@H](CO)[C@@H](O)[C@H](N)[C@H]1O [Amikacin] was tested. Which MIC [1] did it give?
Its MIC is 10 µg/mL (≈ 17.1 µM).

Which results are given for CC1(C)S[C@@H]2[C@H](NC(=O)[C@H](N)c3ccccc3)C(=O)N2[C@H]1C(=O)O [Ampicillin]?
MIC [1]: 10 µg/mL (≈ 28.6 µM); Sensitive / Resistant to antibiotic [2]: Sensitive; Sensitive / Resistant to antibiotic [3]: Resistant; Sensitive / Resistant to antibiotic [4]: Resistant; shift in the cluster plot (PC-DFA) ([5]; after 30 minutes exposure): ~1.5 units; shift in the cluster plot (PC-DFA) ([5]; at 10 minutes exposure): minimal; shift in the cluster plot (PC-DFA) [6]: minimal; shift in the cluster plot (PC-DFA) [7]: minimal

Which “Sensitive / Resistant to antibiotic” value [2] does the source give for O=C(O)c1cn(C2CC2)c2cc(N3CCNCC3)c(F)cc2c1=O [Ciprofloxacin] here?
The value was “Sensitive”.

And the “Sensitive / Resistant to antibiotic” value [3]?
Its value is “Sensitive”.

What about the “Sensitive / Resistant to antibiotic” value [4] of the same compound?
The value was “Sensitive”.

With COc1cc(Cc2cnc(N)nc2N)cc(OC)c1OC [Trimethoprim] as the compound, how does the MIC [1] read?
The MIC was 300 µg/mL (≈ 1030 µM).

And the “Sensitive / Resistant to antibiotic” value [2]?
The value was “Resistant”.

What about the “Sensitive / Resistant to antibiotic” value [3] of the same compound?
The value was “Resistant”.

And the “Sensitive / Resistant to antibiotic” value [4]?
The value was “Resistant”.

What about the “shift in the cluster plot (PC-DFA)” value ([5]; after 30 minutes exposure) of the same compound?
The value was roughly 4 units.

What about the “shift in the cluster plot (PC-DFA)” value ([5]; at 10 minutes exposure) of the same compound?
The value was “minimal”.

And the “shift in the cluster plot (PC-DFA)” value [6]?
The value was roughly 3 units.

And the “shift in the cluster plot (PC-DFA)” value [7]?
The value was roughly 3 units.

Source: patent US10570436B2, “Method of analysing a sample including a microorganism of interest” (Spectromics Limited, priority 2014, dated 2020)
